Reference: US10352938B2, “Macrocyclic HOPO chelators” (LUMIPHORE, INC., priority 2009, dated 2019)
Where two headings read alike, the source gives them in different places.

Tests used:
[1] = UV/visible absorption spectroscopy of Eu(III) complexes in TRIS buffer; format: physicochemical
From the text: Extinction Coefficient. A series of solutions of varied concentrations will be prepared from the solids based on mass and purity. The absorbance of each of these solutions at both 340 nm and at the appropriate acceptor wavelength will be measured and plotted according to Beer's Law (A=εcL where A is absorbance, ε is the extinction coefficient in M^−1 cm^−1, c is concentration, and L is path length in cm) with the fitted linear regression slope equal to […] on a plot of A as a function of C.
Each of the spectra have absorption maxima around 335-340 nm (FIG. 2). Those bands are composed of two electronic transitions; at higher energy, a purely π-π* transition and, at slightly lower energy (around ca. 320 nm), a π-π* transition with some n-π* character, as evidenced previously from TD-DFT calculations. […] This interaction gives maxima blue-shifting from 341 nm for [Eu(H(2,2)-1,2-HOPO)]^0 to 334 nm for [Eu(H(17O5,2)-1,2-HOPO)]^0 (as low as 332 nm for)[Eu(5LIN^Me-1,2HOPO)2]^0).

[2] = Luminescence quantum yield, emission and brightness in aqueous 0.1 M TRIS buffer; format: physicochemical; conditions: for øTot: 0.1M TRIS buffer pH = 7.4; for Brightness: at maximum absorption, product of quantum yield and molar absorption coefficient, 0.1 M TRIS pH = 7.4; for overall quantum yield (in words): related to inner-sphere coordinated water
Procedure: Quantum Yield. Quantum yield will be measured using established methods. Fluorescence quantum yield Q are measured in diluted solution with an optical density lower than 0.1 using the following equation Qx/Qr=[Ar(λr)/Ax(λx)][nx^2/nr^2][Dx/Dr] were A is the absorbance at the excitation wavelength (λ), n the refractive index and D the integrated luminescence intensity. Subscripts “r” and “x” stand for reference and sample, respectively. References will be a quinine bisulfate in 1N sulfuric acid in aqueous solution (Qt=0.546)^1 and Ru(bpy)3 2C1 complexes in water solution (Qr=0.028)^2 for all complexes. A plot of integrated emission intensity (i.e. Dr) versus absorbance (i.e. Ar(λr)) yields a linear plot with a slope which can be equated to the reference quantum yield Qr. By analogy, for the unknown sample, a plot of integrated emission intensity (i.e. Dx) versus absorbance (i.e. Ax(λx)) yields a linear plot and Qx can then be evaluated. A minimum of at least two independent measurements will be averaged to derive a reliable value.

[3] = Stability titration (pEu) by competitive batch titration using DTPA; format: physicochemical; conditions: for pEu value as compared to DTPA: in words
Procedure: (§1) Stability Titrations. The general procedure used to determine the pEu values of ligands was adapted from an already described study using Gd and are similar to that already reported for other complexes. Different volumes of a standardized DTPA stock solution were added to solutions of constant ligand, metal, and electrolyte concentrations. Concentrations of complexed ligand in each solution were determined by subtracting the remaining luminescence intensity after addition of DTPA to the initial luminescence intensity at identical pH and those concentrations were used as references for the analysis. Stability of compounds towards mM concentrations of EDTA and divalent cations will be assessed by incubation of the proposed molecules at nM concentration at room temperature in aqueous solutions of test ions. Time Resolved Fluorescent signal will be assessed at the outset of experiment and monitored over a minimum of 24 hours to determine signal change.

[4] = Triplet excited state energy from phosphorescence of Gd complexes at 77K; format: physicochemical; conditions: solid matrix (methanol/ethanol 1/4), using the Gd complexes
Procedure: Estimation of the energies of the ligand based triplet excited state were determined using the Gd(III) complexes. Gadolinium was chosen because it is a 4f^7 lanthanide cation having a similar 4f electronic configuration and size as the europium cation (4f^6), but lacking an accessible metal based low energy electronic excited state. At room temperature, only a broad weak emission centered between 380-400 nm can be seen for the Gd(III) complexes. […] At 77K, in solid matrix, an emission band at approx. 500 nm can be seen (FIG. 8). This emission, red-shifted compared to the singlet excited state, can be assigned to phosphorescence from the triplet excited state, lower in energy than the singlet excited state observed at room temperature. Selective time gated phosphorescence spectra (delay 0.1 ms) of the gadolinium complexes at 77K are depicted in FIG. 8.

[5] = cited from earlier work; for λ: absorption maximum; for ε: extinction coefficient
[6] = quantum yield; cited from earlier work
[7] = cited from earlier work; for τ (D2O): first component where two are printed; for τ (H2O): first (longer) component; for τ (H2O), second component: second (shorter) component of biexponential decay; for q / q, second species: number of inner sphere water molecules; for q: first species
[8] = competitive batch titration using DTPA in 0.1M TRIS pH = 7.4 and 0.1M KCl; cited from earlier work
[9] = Luminescence lifetimes (TRIS buffer, deuterated water, 77K) and inner sphere water number q; conditions: for τ^D / τ (77K): first component; for q / q, second species: inner sphere water molecules; for q: improved Horrock's equations, first species; for τ (77K) / τ (77K), second component: solid matrix at 77K (methanol/ethanol 1/4)
Procedure: Fluorescent decay signals can be acquired using an IBH DataStation Hub photon counting module and data analysis performed using the commercially available DAS 6 decay analysis software package from HORIBA Jobin Yvon IBH. Goodness of fit will be assessed by minimizing the reduced chi squared function, χ2, and a visual inspection of the weighted residuals. Each trace will use at least 10,000 points and the reported lifetime values result from at least three independent measurements.
In addition to the steady state emission spectra, the luminescence quantum yields and luminescence lifetimes of the Eu(III) complexes were also measured in aqueous solution with 0.1 M TRIS buffer pH=7.4 and in deuterated solution to estimate the number of inner sphere water molecule (i.e. q) using the improved Horrock's equations.
Luminescence lifetimes were also determined at 77K, in a solid matrix (Table 5), which have allowed us to determine whether back energy transfer between the donor triplet excited state and the acceptor manifold excited state of the lanthanide is present, or alternately whether quenching via low lying LMCT state occurs.

[10] = Calculation of Eu luminescence parameters (radiative lifetime, rate constants, efficiencies); format: physicochemical
Procedure: In this equation, the ηISC ηET term is termed the sensitization efficiency, ηsens (ηsens=ηISC ηET). All the luminescence parameters τR (the pure radiative luminescence lifetime), kR and knR (the radiative and non-radiative constant rate) can be deduced. These parameters were calculated for five of the octadentate complexes and the model complex that present only one species in solution at pH=7.4 and are reported in Table 6.

[11] = Stability testing in concentrated solutions of divalent cations and EDTA; format: physicochemical; conditions: over 24 hrs
Procedure: as §1
Although these conditions represent concentrations that are in excess of those typically encountered in routine commercial use, they are a benchmark used in the high-throughput screening industry to evaluate these types of molecules. For comparison, stability testing of the commercialized Lumi4-Tb compound is shown (FIG. 3, top) and represents the stability benchmark for these types of molecules.

[12] = TRIS buffer pH = 7.4, listed as [Eu(H(3,2)-1,2HOPO)]^0
[13] = listed as [Eu(H(3,2)-1,2HOPO)]^0
[14] = deuterated solution, listed as [Eu(H(3,2)-1,2HOPO)]^0
[15] = TRIS buffer pH = 7.4, listed as [Eu(H(4,2)-1,2HOPO)]^0
[16] = listed as [Eu(H(4,2)-1,2HOPO)]^0
[17] = deuterated solution, listed as [Eu(H(4,2)-1,2HOPO)]^0

Structure (SMILES): O=C(NCCN(CCCCN(CCNC(=O)c1cccc(=O)n1O)CCNC(=O)c1cccc(=O)n1O)CCNC(=O)c1cccc(=O)n1O)c1cccc(=O)n1O [Eu(H3)]
- ε [1, 12]: 17,700 M^−1 · cm^−1
- λ^maxabs [1, 12]: 339 nm
- øTot [2, 13]: 0.037
- Brightness [2, 13]: 655 M⁻¹ cm⁻¹
- overall quantum yield (in words) [2]: low quantum yields
- pEu value as compared to DTPA [3]: decreased
- decrease in stability relative to Eu(H8-2) and Eu(H11-3) ([3]; pEu difference): 2.9 log unit
- T0-0 (triplet excited state energy) [4, 13]: 21,900 cm^−1
- λ [5]: 339 nm
- ε [5]: 17,700 M^1 cm^−1
- ϕEu [6]: 0.037
- τ (D2O) [7]: 811 μs
- τ (D2O), second component [7]: 369 μs
- τ (H2O) [7]: 552 μs
- τ (H2O), second component [7]: 253 μs
- q [7]: 0.3
- q, second species [7]: 1.0
- pEu [8]: 17.5
- τ^D [9, 14]: 811; μs
- τ^D, second component [9, 14]: 369 μs
- q ([9]; listed as [Eu(H(3,2)-1,2-HOPO)]^0): 0.3
- q [9, 13]: 0.3;
- q, second species [9, 13]: 1.0
- τ (77K) [9, 13]: 1040; μs
- τ (77K), second component [9, 13]: 781 μs

Structure (SMILES): O=C(NCCN(CCCCN(CCNC(=O)c1cccc(=O)n1O)CCNC(=O)c1cccc(=O)n1O)CCNC(=O)c1cccc(=O)n1O)c1cccc(=O)n1O [Eu(H4)]
- ε [1, 15]: 17,900 M^−1 · cm^−1
- λ^maxabs [1, 15]: 337 nm
- øTot ([2]; listed as [Eu(H(4,2)-1,2-HOPO)]^0): 0.031
- øTot [2, 16]: 0.031
- Brightness [2, 16]: 555 M⁻¹ cm⁻¹
- overall quantum yield (in words) [2]: low quantum yields
- pEu value as compared to DTPA [3]: decreased
- T0-0 (triplet excited state energy) [4, 16]: 22,390 cm^−1
- λ [5]: 337 nm
- ε [5]: 17,900 M^1 cm^−1
- ϕEu [6]: 0.031
- τ (D2O) [7]: 803 μs
- τ (D2O), second component [7]: 338 μs
- τ (H2O) [7]: 649 μs
- τ (H2O), second component [7]: 236 μs
- q [7]: 0
- q, second species [7]: 1.1
- pEu [8]: 18.4
- τ^D [9, 17]: 803; μs
- τ^D, second component [9, 17]: 338 μs
- q [9, 16]: 0;
- q, second species [9, 16]: 1.1
- τ (77K) [9, 16]: 902; μs
- τ (77K), second component [9, 16]: 645 μs

Structure (SMILES): O=C(NCCN(CCNC(=O)c1cccc(=O)n1O)CCOCCOCCOCCN(CCNC(=O)c1cccc(=O)n1O)CCNC(=O)c1cccc(=O)n1O)c1cccc(=O)n1O [Eu(H11-3)]
- ε ([1]; TRIS buffer pH = 7.4): 15,070 M^−1 · cm^−1
- λ^maxabs ([1]; TRIS buffer pH = 7.4): 334 nm
- λ ([1]; absorption maximum): 334 nm
- ε ([1]; extinction coefficient, in M-1·cm-1): 15,070
- øTot [2]: 0.165
- ϕTot ([2]; aqueous TRIS pH = 7.4, complexes with only one species): 0.165
- quantum yield in aqueous medium ([2]; aqueous medium): 17%
- ϕTot ([2]; aqueous quantum yield): 0.165
- Brightness [2]: 2485 M⁻¹ cm⁻¹
- overall quantum yield (in words) [2]: comparatively high quantum yields
- pEu ([3]; competitive batch titration using DTPA in 0.1M TRIS pH = 7.4 and 0.1M KCl): 20.4
- pEu value as compared to DTPA [3]: increased
- T0-0 (triplet excited state energy) [4]: 22,120 cm^−1
- sensitization process efficiency [10]: 40.2%
- η^Eu ([10]; efficiency of metal centred luminescence): 0.411
- knr ([10]; non-radiative rate constant): 882 s⁻¹
- τrad ([10]; pure radiative luminescence lifetime, aqueous TRIS pH = 7.4): 1630 μs
- kr ([10]; radiative rate constant): 615 s⁻¹
- η^sens ([10]; sensitization efficiency): 0.402
- signal change in concentrated solutions of divalent cations and EDTA [11]: significant signal loss
- τ ([9]; aqueous TRIS pH = 7.4): 668 μs
- τ^D ([9]; deuterated solution): 888 μs
- τ^D ([9]; deuterated water): 888 μs
- τ ([9]; first (longer) component): 668 μs
- q [9]: 0.1
- τ (77K) [9]: 765 μs
